Assay results taken from patent US4048334A, “Active derivatives of methylamino in therapeutic compositions and methods of use” (priority 1974, dated 1977).

Columns and labels:
[1] = test system: reserpine-induced catatonia; assay: Inhibition of reserpine-induced catatonia; assay type: in vivo, rat (male, OFA strain)
Method: 1. Inhibition of reserpine-induced catatonia
After sufficient doses of reserpine have been administered to the rat, a series of symptoms occur, more particularly ptosis, catatonia and a drop in central temperature. These symptoms are caused by the depletion of the intragranular reserve pool of boigenetic amines at the synaptic terminals.
An oral dose of the compound to be studied in aqueous solution was administered to batches of 10 male rats of the OFA strain weighing about 150 to 200 g. Thirty minutes later a dose of 5 mg/kg of reserpine was given by intraperitoneal route. Three hours after the injection of reserpine, the animals were suspended by the four paws to a horizontally stretched wire fixed at 15 cm from the ground. The catatonic animals were those which maintained the position so given for at least 30 seconds. […] The maximum score was therefore 10 per batch. An identical trial was undertaken with control animals which received reserpine but none of the compounds being studied.

[2] = test system: neuroleptic-induced catatonia; assay: Inhibition of neuroleptic-induced catatonia (prochlorperazine); assay type: in vivo, rat (male, OFA strain)
Method: 2. Inhibition of neuroleptic-induced catatonia
The blocking of dopaminergic receptors by neuroleptics in the extra-pyramidal system induces catatonia in the rat. Catatonia is differentiated from sedative properties by means of the test used hereabove for reserpine-induced catatonia. The same system of scoring was also employed in the present case.
An oral dose of the compound to be studied in aqueous solution was administered to batches of 10 male rats of the OFA strain weighing about 150 to 200 g. […] Three hours after the injection of this latter compound, catatonia was measured. An identical trial was also carried out with control animals which received prochlorperazine but none of the compounds under study.
The scoring system, used was that given hereabove in Table I.

in vivo = conditions: mouse, mice, oral, aqueous solution, 10 days observation
[3] = test system: reserpine-induced and neuroleptic-induced catatonia; assay: Toxico-pharmacological index (LD50 / effective dose in catatonia); conditions: ED20-30: 20 to 30% inhibition of the catatonia
[4] = as above; conditions: in vivo
catalepsy = assay: Inhibition of catalepsy (crossing of homolateral paws, prochlorperazine); assay type: in vivo, rat; conditions: Rattus norvegicus, po, read-out: dose necessary to induce complete inhibition of the catalepsy; prochlorperazine catalepsy
Method: Additional trials were carried out on rats with Compound 1 and amantadine. These trials involved catalepsy as evidenced by the crossing of the animals' homolateral paws.

[5] = test system: reserpine-induced catatonia; assay: Suppression of reserpine-induced catatonia (curative treatment); assay type: in vivo, rat (male, OFA strain); parameters: key to catatonia score (maximum 5 per batch): number of animals (of 5) still in catatonia; max 5 per batch; conditions: 80 mg/kg oral
Method: a. Suppression of reserpine-induced catatonia
Batches of 5 male rats of the OFA strain, weighing 150 to 200 g were given 5 mg/kg of reserpine by intraperitoneal route. One hour and 45 minutes later, namely when the animals were in a state of catatonia, an aqueous dose of the compound to be studied was administered by oral route to all the animals with the exception of the control group.
The progress of the catatonia was then noted following the scale used in the tests described hereabove.
The maximum score was thus 5 per batch which means that all the animals of the batch were considered to be still in a state of catatonia.

[6] = test system: neuroleptic-induced catatonia; assay: Suppression of neuroleptic-induced catatonia (curative treatment, prochlorperazine); assay type: in vivo, rat (male, OFA strain); conditions: 80 mg/kg oral
Method: b. Suppression of neuroleptic-induced catatonia
Batches of 5 male rats of the OFA strain were given 12.5 mg/kg of prochlorperazine by intraperitoneal route. Fifty-five minutes later, an oral dose in aqueous solution of the compound to be studied was administered to all the animals with the exception of the control group. The progress of the catatonia was noted following the same scale as that used in the tests described above.

[7] = test system: tremorine-induced cholinergic effects; assay: Anti-tremorine test (cholinolytic properties in vivo); parameters: species or system mice (male, OF1 strain); key to peripheral cholinergic effects score (salivation, sweating, weeping): 0: no action; 1: slight action; 2: average action; 3: strong action; 4: very strong action
Method: For this purpose, the following test was performed with a view to determining the anti-tremorine properties of Compound 1.
When injected into mice, tremorine produces peripheral effects i.e. weeping, sweating, salivation and diarrhoea and central effects i.e. tremor and akinesia. Such effects are due to an increase in the amount of intracerebral acetylcholine and serotonine.
Male mice of the OF1 strain weighing about 22 g were divided into batches of 10. […] Thirty minutes later a dose of 10 mg/kg of tremorine was injected by intraperitoneal route and, at different times after this injection, note was taken of the cholinergic effects on each animal in accordance with the following scale: […]

electrocardiogram = assay: Effect on the electrocardiogram; assay type: in vivo; conditions: dog, 5 mg/kg injected
[8] = test system: peripheral noradrenergic phenomena (arterial pressure, nictitating membrane); conditions: cat, in vivo
[9] = test system: peripheral noradrenergic phenomena (arterial pressure, nictitating membrane); assay: Influence on peripheral noradrenergic phenomena (norepinephrine, arterial pressure and nictitating membrane)
[10] = SPERBER et al., J. Amer. Chem. Soc., 71, 3352 (1949); cited from earlier work
[11] = 20 mg/kg oral, 30 min before reserpine
[12] = 20 mg/kg oral, 30 min before prochlorperazine

Structure (SMILES): CCCCCC(C)(N)CCC (stereo not shown) [Compound 9, 1-Methyl-1-n-propyl-n-hexylamine]
- Inhibition of reserpine-induced catatonia [1, 11]: 1 (20 to 30% inhibition of catatonia in comparison with the controls (namely a score of 7 to 8 per studied batch))
- Inhibition of the neuroleptic-induced catatonia [2, 12]: 1 (20 to 30% inhibition of catatonia in comparison with the controls (namely a score of 7 to 8 per studied batch))
- LD50 at 240 h (in vivo): 1750 mg/kg
- Index LD50/ED20-30 [3]: 87

Structure (SMILES): CCCC(N)(CC)CCC [Compound 2, 1-Ethyl-1-n-propyl-n-butylamine]
- Inhibition of reserpine-induced catatonia ([1]; 5 mg/kg oral, 30 min before reserpine 5 mg/kg i.p.): 1 (20 to 30% inhibition of catatonia in comparison with the controls (namely a score of 7 to 8 per studied batch))
- Inhibition of the neuroleptic-induced catatonia ([2]; 5 mg/kg oral, 30 min before prochlorperazine 12.5 mg/kg i.p.): 1 (20 to 30% inhibition of catatonia in comparison with the controls (namely a score of 7 to 8 per studied batch))
- LD50 at 240 h (in vivo): 150 mg/kg
- selectivity ratio [4]: 25

Structure (SMILES): NC12CC3CC(CC(C3)C1)C2 [Amantadine, 1-amino-adamantane]
- Inhibition of reserpine-induced catatonia ([1]; 100 mg/kg oral, 30 min before reserpine): 4 (100% inhibition of catatonia in comparison with the controls (namely a score of 0 per studied batch))
- Inhibition of the neuroleptic-induced catatonia ([2]; 100 mg/kg oral, 30 min before prochlorperazine): 4 (100% inhibition of catatonia in comparison with the controls (namely a score of 0 per studied batch))
- ED100 (catalepsy): 80 mg/kg
- catatonia score (maximum 5 per batch) ([5]; 2h15 after reserpine): 4
- catatonia score (maximum 5 per batch) ([5]; 2h30 after reserpine): 3
- catatonia score (maximum 5 per batch) ([5]; 3h30 after reserpine): 1
- catatonia score (maximum 5 per batch) ([5]; 2h after reserpine): 5
- catatonia score (maximum 5 per batch) ([5]; 3h after reserpine): 2
- catatonia score (maximum 5 per batch) ([5]; 4h after reserpine): 0
- catatonia score (maximum 5 per batch) ([5]; 5h after reserpine): 0
- catatonia score (5 rats per batch) ([6]; 1h30 after prochlorperazine): 5
- catatonia score (5 rats per batch) ([6]; 2h30 after prochlorperazine): 2
- catatonia score (5 rats per batch) ([6]; 3h30 after prochlorperazine): 0
- catatonia score (5 rats per batch) ([6]; 3h after prochlorperazine): 1
- catatonia score (5 rats per batch) ([6]; 4h after prochlorperazine): 0
- catatonia score (5 rats per batch) ([6]; 5h after prochlorperazine): 0
- peripheral cholinergic effects score (salivation, sweating, weeping) ([7]; 40 mg/kg oral, 20, 30 and 40 minutes after tremorine 10 mg/kg i.p.): 4
- central cholinergic effects (normal and provoked tremor) ([7]; 40 mg/kg oral, identical to the peripheral score (4)): Identical results
- antitremorine properties ([7]; mouse, in vivo): devoid of antitremorine properties
- effect on the electrocardiogram (electrocardiogram): cardiac arrhythmia due to ventricular extrasystoles
- dose from which exogenous norepinephrine is potentiated [8]: ≥ 1 mg/kg
- dose from which ganglioplegic properties are shown [8]: ≥ 5 mg/kg
- Contractile reaction of the nictitating membrane with electric stimulation ([9]; cumulative dose 0.1 mg/kg i.v.): 20 mm
- Contractile reaction of the nictitating membrane without electric stimulation ([9]; cumulative dose 0.1 mg/kg i.v.): 0 mm
- Increase in arterial pressure after injection of norepinephrine ([9]; cumulative dose 0.1 mg/kg i.v.): 29 mm Hg
- Contractile reaction of the nictitating membrane with electric stimulation ([9]; cumulative dose 1 mg/kg i.v.): 20 mm
- Contractile reaction of the nictitating membrane without electric stimulation ([9]; cumulative dose 1 mg/kg i.v.): 3 mm
- Increase in arterial pressure after injection of norepinephrine ([9]; cumulative dose 1 mg/kg i.v.): 35 mm Hg
- Contractile reaction of the nictitating membrane with electric stimulation ([9]; cumulative dose 3 mg/kg i.v.): 16 mm
- Contractile reaction of the nictitating membrane without electric stimulation ([9]; cumulative dose 3 mg/kg i.v.): 4.4 mm
- Increase in arterial pressure after injection of norepinephrine ([9]; cumulative dose 3 mg/kg i.v.): 35 mm Hg
- Contractile reaction of the nictitating membrane with electric stimulation ([9]; cumulative dose 5 mg/kg i.v.): 10 mm
- Contractile reaction of the nictitating membrane without electric stimulation ([9]; cumulative dose 5 mg/kg i.v.): 5.9 mm
- Increase in arterial pressure after injection of norepinephrine ([9]; cumulative dose 5 mg/kg i.v.): 59 mm Hg
- Contractile reaction of the nictitating membrane with electric stimulation ([9]; cumulative dose 10 mg/kg i.v.): 4 mm
- Contractile reaction of the nictitating membrane without electric stimulation ([9]; cumulative dose 10 mg/kg i.v.): 7.5 mm
- Increase in arterial pressure after injection of norepinephrine ([9]; cumulative dose 10 mg/kg i.v.): 57 mm Hg
- ganglioplegic action ([9]; in vivo): exerts a ganglioplegic action
- own effect on contractile reaction of the nictitating membrane ([9]; in vivo): stimulates the contractile reaction of the nictitating membrane
- potentiation of (peripheral) effects of norepinephrine ([9]; in vivo): potentiates the peripheral adrenergic effects
- potentiation of the effects of the electric stimulation ([9]; in vivo): does not potentiate the effects of the electric stimulation

Structure (SMILES): CCCCC(N)(CCCC)CCCC [Compound 12, 1,1-Di-n-butyl-n-pentylamine]
- Inhibition of reserpine-induced catatonia [1, 11]: 1 (20 to 30% inhibition of catatonia in comparison with the controls (namely a score of 7 to 8 per studied batch))
- Inhibition of the neuroleptic-induced catatonia [2, 12]: 1 (20 to 30% inhibition of catatonia in comparison with the controls (namely a score of 7 to 8 per studied batch))
- LD50 at 240 h (in vivo): 500 mg/kg
- spasmolytic activity and toxicity versus corresponding trialkylethylamines [10]: less spasmolytic and more toxic than the corresponding trialkylethylamines
- Index LD50/ED20-30 [3]: 25

Structure (SMILES): CCCC(C)(N)CC(C)CC (stereo not shown) [Compound 6, 1,3-Dimethyl-1-n-propyl-n-pentylamine]
- Inhibition of reserpine-induced catatonia [1, 11]: 1 (20 to 30% inhibition of catatonia in comparison with the controls (namely a score of 7 to 8 per studied batch))
- Inhibition of the neuroleptic-induced catatonia [2, 12]: 1 (20 to 30% inhibition of catatonia in comparison with the controls (namely a score of 7 to 8 per studied batch))
- LD50 at 240 h (in vivo): > 500 mg/kg
- Index LD50/ED20-30 [3]: > 25
